# Results as given in patent US8163775B2, “Allosteric modulators of metabotropic glutamate receptors” (Addex Pharma SA, priority 2003, dated 2012).
row,SMILES,melting point
1,"O=C(c1cc(F)c(F)c(F)c1)N1CCC[C@H](c2nc(-c3ccc(F)cc3)no2)C1 [Example 26, {(S)-3-[3-(4-Fluoro-phenyl)-[1,2,4]oxadiazol-5-yl]-piperidin-1-yl}-(3,4,5-trifluoro-phenyl)-methanone]",139 to 140 °C
2,"Cc1cc(C(=O)N2CCC[C@H](c3nc(-c4ccc(F)cc4)no3)C2)ccc1F [Example 30, (4-Fluoro-3-methyl-phenyl)-{(S)-3-[3-(4-fluoro-phenyl)-[1,2,4]oxadiazol-5-yl]-piperidin-1-yl}-methanone]",106 to 107 °C
3,"COc1ccc(-c2noc(C3CCCN(C(=O)c4ccccc4)C3)n2)cc1 (stereo not shown) [Example 3, {3-[3-(4-Methoxy-phenyl)-[1,2,4]oxadiazol-5-yl]-piperidin-1-yl}-phenyl-methanone]",121 °C
4,"O=C(c1ccc2ncsc2c1)N1CCC[C@H](c2nc(-c3ccc(F)cc3)no2)C1 [Example 36, Benzothiazol-6-yl-{(S)-3-[3-(4-fluoro-phenyl)-1,2,4-oxadiazol-5-yl]-piperidin-1-yl}-methanone]",63 to 64 °C
5,"O=C(c1csnn1)N1CCC[C@H](c2nc(-c3ccc(F)cc3)no2)C1 [Example 18, {(S)-3-[3-(4-Fluoro-phenyl)-[1,2,4]oxadiazol-5-yl]-piperidin-1-yl}-[1,2,3]thiadiazol-4-yl-methanone]",90 to 91 °C
6,"O=C(c1ccc(F)c(F)c1)N1CCC[C@H](c2nc(-c3ccc(F)cc3)no2)C1 [Example 35, (3,4-Difluoro-phenyl)-{(S)-3-[3-(4-fluoro-phenyl)-[1,2,4]oxadiazol-5-yl]-piperidin-1-yl}-methanone]",120 to 121 °C
7,"O=C(c1ccc(-c2ccccn2)s1)N1CCC[C@H](c2nc(-c3ccc(F)cc3)no2)C1 [Example 31, {(S)-3-[3-(4-Fluoro-phenyl)-1,2,4-oxadiazol-5-yl]-piperidin-1-yl}-(5-pyridin-2-yl-thiophen-2-yl)-methanone]",115 to 117 °C
8,"O=C(c1ccccc1)N1CCCC(c2nc(-c3ccc(F)cc3)no2)C1 (stereo not shown) [Example 5, {3-[3-(4-Fluoro-phenyl)-[1,2,4]oxadiazol-5-yl]-piperidin-1-yl}-phenyl-methanone]",82 to 83 °C
9,"O=C(c1ccc(F)cc1)N1CCCC(c2nc(-c3ccccc3)no2)C1 (stereo not shown) [Example 7, (4-Fluoro-phenyl)-[3-(3-phenyl-[1,2,4]oxadiazol-5-yl)-piperidin-1-yl]-methanone]",78 to 79 °C
10,"O=C(c1nc2ccccc2s1)N1CCC[C@H](c2nc(-c3ccc(F)cc3)no2)C1 [Example 19, Benzothiazol-2-yl-{(S)-3-[3-(4-fluoro-phenyl)-[1,2,4]oxadiazol-5-yl]-piperidin-1-yl}-methanone]",130 to 131 °C
11,"O=C(c1ccc(C(F)(F)F)cc1)N1CCC[C@H](c2nc(-c3ccc(F)cc3)no2)C1 [Example 22, {(S)-3-[3-(4-Fluoro-phenyl)-[1,2,4]oxadiazol-5-yl]-piperidin-1-yl}-(4-trifluoromethyl-phenyl)-methanone]",109 to 110 °C
12,"Cc1cc(C(=O)N2CCC[C@H](c3nc(-c4ccc(F)cc4)no3)C2)nn1C [Example 21, (1,5-Dimethyl-1H-pyrazol-3-yl)-{(S)-3-[3-(4-fluoro-phenyl)-[1,2,4]oxadiazol-5-yl]-piperidin-1-yl}-methanone]",108 to 109 °C
13,"Cc1ccsc1C(=O)N1CCC[C@H](c2nc(-c3ccc(F)cc3)no2)C1 [Example 32, {(S)-3-[3-(4-Fluoro-phenyl)-1,2,4-oxadiazol-5-yl]-piperidin-1-yl}-(3-methyl-thiophen-2-yl)-methanone]",90 to 92 °C
14,"O=C(c1ccno1)N1CCC[C@H](c2nc(-c3ccc(F)cc3)no2)C1 [Example 24, {(S)-3-[3-(4-Fluoro-phenyl)-[1,2,4]oxadiazol-5-yl]-piperidin-1-yl}-isoxazol-5-yl-methanone]",93 to 94 °C
15,"Cn1cccc1C(=O)N1CCC[C@H](c2nc(-c3ccc(F)cc3)no2)C1 [Example 33, {(S)-3-[3-(4-Fluoro-phenyl)-1,2,4-oxadiazol-5-yl]-piperidin-1-yl}-(1-methyl-1H-pyrrol-2-yl)-methanone]",84 to 85 °C
16,"Cc1nc(-c2cnccn2)sc1C(=O)N1CCC[C@H](c2nc(-c3ccc(F)cc3)no2)C1 [Example 14, {(S)-3-[3-(4-Fluoro-phenyl)-[1,2,4]oxadiazol-5-yl]-piperidin-1-yl}-(4-methyl-2-pyrazin-2-yl-thiazol-5-yl)-methanone]",147 to 148 °C
17,"O=C(c1ccc(F)cc1)N1CCCC(c2nc(-c3cccc(F)c3)no2)C1 (stereo not shown) [Example 10, (4-Fluoro-phenyl)-{3-[3-(3-fluoro-phenyl)-[1,2,4]oxadiazol-5-yl]-piperidin-1-yl}-methanone]",86 to 89 °C
18,"O=C(c1ccc(F)cc1)N1CCCC(c2nnc(-c3ccc(F)cc3)[nH]2)C1 (stereo not shown) [Example 1, (4-Fluoro-phenyl)-{3-[5-(4-fluoro-phenyl)-4H-[1,2,4]triazol-3-yl]-piperidin-1-yl}-methanone]",95 °C
19,"N#Cc1ccc(C(=O)N2CCC[C@H](c3nc(-c4ccc(F)cc4)no3)C2)cc1 [Example 23, 4-{(S)-3-[3-(4-Fluoro-phenyl)-[1,2,4]oxadiazol-5-yl]-piperidine-1-carbonyl}-benzonitrile]",129 to 130 °C
20,"O=C(c1cccc(F)c1)N1CCCC(c2nc(-c3ccc(F)cc3)no2)C1 (stereo not shown) [Example 6, (3-Fluoro-phenyl)-{3-[3-(4-fluoro-phenyl)-[1,2,4]oxadiazol-5-yl]-piperidin-1-yl}-methanone]",139 to 140 °C
21,"O=C(c1cccs1)N1CCC[C@H](c2nc(-c3ccc(F)cc3)no2)C1 [Example 13, S-(thiophen-2-yl)-{3-[3-(4-fluoro-phenyl)-[1,2,4]oxadiazol-5-yl]-piperidin-1-yl}-methanone]",82 to 83 °C
22,"O=C(c1ccc(F)c(Cl)c1)N1CCC[C@H](c2nc(-c3ccc(F)cc3)no2)C1 [Example 27, (3-Chloro-4-fluoro-phenyl)-{(S)-3-[3-(4-fluoro-phenyl)-[1,2,4]oxadiazol-5-yl]-piperidin-1-yl}-methanone]",123 to 124 °C

# Results, then the compound that gave them:
row,melting point,SMILES
1,138 to 140 °C,"O=C(c1ccc(F)c(F)c1)N1CCC[C@H](c2nc(-c3ccc([N+](=O)[O-])cc3)no2)C1 [Example 72, (3,4-Difluoro-phenyl)-{(S)-3-[3-(4-nitro-phenyl)-[1,2,4]oxadiazol-5-yl]-piperidin-1-yl}-methanone]"
2,116 to 118 °C,"O=C(c1ccc(F)cc1)N1CCC[C@H](c2nc(-c3ccccc3)no2)C1 [Example 69, (4-Fluoro-phenyl)-[(S)-3-(3-phenyl-[1,2,4]oxadiazol-5-yl)-piperidin-1-yl]-methanone]"
3,94 to 95 °C,"O=C(c1nccs1)N1CCC[C@H](c2nc(-c3ccc(F)cc3)no2)C1 [Example 37, {(S)-3-[3-(4-Fluoro-phenyl)-1,2,4-oxadiazol-5-yl]-piperidin-1-yl}-thiazol-2-yl-methanone]"
4,83 to 84 °C,"O=C(CCc1ccc(F)cc1)N1CCC[C@H](c2nc(-c3ccc(F)cc3)no2)C1 [Example 42, 3-(4-Fluoro-phenyl)-1-{(S)-3-[3-(4-fluoro-phenyl)-1,2,4-oxadiazol-5-yl]-piperidin-1-yl}-propan-1-one]"
5,113 to 115 °C,"O=C(c1ccc(F)cc1)N1CCC[C@H](c2nc(-c3ccncc3)no2)C1 [Example 48, (4-Fluoro-phenyl)-[(S)-3-(3-pyridin-4-yl-[1,2,4]oxadiazol-5-yl)-piperidin-1-yl]-methanone]"
6,149 to 151 °C,"O=C(c1ccc(F)c(F)c1)N1CCC[C@H](c2nc(-c3ccccc3)no2)C1 [Example 70, (3,4-Difluoro-phenyl)-[(S)-3-(3-phenyl-[1,2,4]oxadiazol-5-yl)-piperidin-1-yl]-methanone]"
7,162 to 164 °C,"O=C(c1ccc(F)cc1)N1CCC[C@H](c2nc(-c3ccc([N+](=O)[O-])cc3)no2)C1 [Example 71, (4-Fluoro-phenyl)-{(S)-3-[3-(4-nitro-phenyl)-[1,2,4]oxadiazol-5-yl]-piperidin-1-yl}-methanone]"
8,110 to 115 °C,"O=C(c1ccc2[nH]cnc2c1)N1CCC[C@H](c2nc(-c3ccc(F)cc3)no2)C1 [Example 45, {(S)-3-[3-(4-Fluoro-phenyl)-1,2,4-oxadiazol-5-yl]-piperidin-1-yl}-benzoimidazol-6-yl-methanone]"
9,137 to 139 °C,"O=C(/C=C/c1ccc(F)cc1)N1CCC[C@H](c2nc(-c3ccc(F)cc3)no2)C1 [Example 64, (E)-3-(4-Fluoro-phenyl)-1-{(S)-3-[3-(4-fluoro-phenyl)-[1,2,4]oxadiazol-5-yl]-piperidin-1-yl}-propenone]"
10,112 to 114 °C,"O=C(c1ccc(N2CCOCC2)nc1)N1CCC[C@H](c2nc(-c3ccc(F)cc3)no2)C1 [Example 39, {(S)-3-[3-(4-Fluoro-phenyl)-1,2,4-oxadiazol-5-yl]-piperidin-1-yl}-(6-morpholin-4-yl-pyridin-3-yl)-methanone]"
11,122 to 124 °C,"Cc1ncsc1C(=O)N1CCC[C@H](c2nc(-c3ccc(F)cc3)no2)C1 [Example 38, {(S)-3-[3-(4-Fluoro-phenyl)-1,2,4-oxadiazol-5-yl]-piperidin-1-yl}-(4-methyl-thiazol-5-yl)-methanone]"
12,191 to 192 °C,"O=C(c1ccc2[nH]ccc2c1)N1CCC[C@H](c2nc(-c3ccc(F)cc3)no2)C1 [Example 40, {(S)-3-[3-(4-Fluoro-phenyl)-1,2,4-oxadiazol-5-yl]-piperidin-1-yl}-(1H-indol-5-yl)-methanone]"
13,142 to 143 °C,"O=C(c1ccc(F)cc1)N1CCC[C@H](c2nc(-c3ccc4ccccc4c3)no2)C1 [Example 53, (4-Fluoro-phenyl)-[(S)-3-(3-naphthalen-2-yl-[1,2,4]oxadiazol-5-yl)-piperidin-1-yl]-methanone]"
14,116 to 117 °C,"O=C(c1ccc(F)cc1)N1CCOC(c2nc(-c3ccc(F)cc3)no2)C1 (stereo not shown) [Example 60, (4-Fluoro-phenyl)-{2-[3-(4-fluoro-phenyl)-[1,2,4]oxadiazol-5-yl]-morpholin-4-yl}-methanone]"
15,115 to 119 °C,O=C(c1ccc(F)c(F)c1)N1CCC[C@H](c2nc(-c3ccccc3F)no2)C1 [Example 59]
